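Briefly, cells in 96-well plates were exposed to five compound concentrations for 48 h, and endpoints were estimated by linear interpolation. Here, GI50 denotes the concentration required for 50% inhibition of growth.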 Activity calls are given as the source filed them. Rule as the data show it: active = GI50 up to about 1.1 µM and inactive = higher. Where only a bound is given, the exact number is not on record here.

Some test systems named below: UO-31; OVCAR-8; DU-145; SF-539; NCI-H226; SK-MEL-2; OVCAR-3; NCI/ADR-RES; NCI-H460; SNB-75; CAKI-1; MDA-MB-231; OVCAR-4; HCT-116; KM12; NCI-H23; TK-10; U-251; HCC 2998; SK-MEL-28.
Common to all, as to test: NCI tumour cell line growth inhibition, 48 h

With `CCN1C(=O)C(=C/C=C/C=C2/N(C)c3ccccc3C2(C)C)C(=O)N(CC)C1=S`, the GI50 is > 100 µM (inactive) in the assay with UO-31; > 100 µM (inactive) with OVCAR-8; 64.7 µM (inactive) in the assay on DU-145; 78.3 µM (inactive) with SF-539; > 100 µM (inactive) in the assay with NCI-H226; > 100 µM (inactive) with SK-MEL-2. In addition, the GI50 in the assay on OVCAR-3 was 36.4 µM (inactive); in the assay on NCI/ADR-RES, > 100 µM (inactive); in the assay with NCI-H460, 38.9 µM (inactive); in the assay on SNB-75 it was > 100 µM (inactive); with CAKI-1, > 100 µM (inactive); with MDA-MB-231 it was > 100 µM (inactive). Besides, the GI50 is 33 µM (inactive) in the assay on OVCAR-4; > 100 µM (inactive) in the assay on HCT-116; > 100 µM (inactive) in the assay on KM12; > 100 µM (inactive) in the assay on NCI-H23; > 100 µM (inactive) in the assay on TK-10.
With `CCN(CC)CCN(/C(=N/c1ccccc1)N1CCCCC1)c1ccccc1`, the GI50 in the assay with UO-31 was 8.07 µM (inactive); in the assay with OVCAR-8 it was 12.2 µM (inactive); in the assay on DU-145, 20.2 µM (inactive); with U-251, 12.7 µM (inactive); in the assay with SF-539, 18.7 µM (inactive); with NCI-H226, 9.23 µM (inactive). Besides, the GI50 in the assay on SK-MEL-2 was 14.5 µM (inactive); in the assay on HCC 2998 it was 6 µM (inactive); in the assay on OVCAR-3, 2.88 µM (inactive); in the assay with NCI-H460 it was 4.78 µM (inactive); in the assay with SNB-75, > 10 µM (inactive); in the assay on CAKI-1 it was 27.8 µM (inactive). Also, the GI50 in the assay with SK-MEL-28 is 16.2 µM (inactive); with MDA-MB-231 it was 3.89 µM (inactive); in the assay with OVCAR-4, 3.87 µM (inactive); in the assay with HCT-116 it was 0.498 µM (active); in the assay with KM12 it was 5.2 µM (inactive); with NCI-H23 it was 4.38 µM (inactive). For the same compound, the GI50 in the assay on TK-10 is 13.2 µM (inactive).
In the case of `COCO[C@@H]1C[C@H]2C(=O)Nc3ccccc3C(=O)N2C1`, the GI50 in the assay with UO-31 was 27 µM (inactive); in the assay on OVCAR-8 it was > 100 µM (inactive); in the assay with DU-145, 48.8 µM (inactive); in the assay on U-251, 45.7 µM (inactive); in the assay with SF-539, 38.7 µM (inactive); with NCI-H226, 3.91 µM (inactive). Besides, the GI50 with SK-MEL-2 is 46.6 µM (inactive); in the assay on NCI/ADR-RES it was 79.1 µM (inactive); with SNB-75 it was 45.3 µM (inactive); in the assay on CAKI-1, 36 µM (inactive); in the assay with SK-MEL-28, > 100 µM (inactive); in the assay on MDA-MB-231 it was > 100 µM (inactive). Also, the GI50 was > 100 µM (inactive) in the assay on OVCAR-4; 85.3 µM (inactive) with HCT-116; > 100 µM (inactive) with KM12; 51.4 µM (inactive) in the assay on NCI-H23; 71.4 µM (inactive) with TK-10.
For the compound `Cc1cc(C)n(CN(CCCCO)Cn2nc(C)cc2C)n1`, the GI50 was 27.7 µM (inactive) in the assay with UO-31; 19.2 µM (inactive) with OVCAR-8; 24.8 µM (inactive) with DU-145; 22.4 µM (inactive) with U-251; 18.6 µM (inactive) in the assay with SF-539; 22.2 µM (inactive) in the assay with SK-MEL-2. Besides, the GI50 in the assay on OVCAR-3 was 27.9 µM (inactive); in the assay on NCI/ADR-RES, 18.2 µM (inactive); in the assay with NCI-H460, 52.7 µM (inactive); with CAKI-1, 34.4 µM (inactive); in the assay with SK-MEL-28 it was 17.7 µM (inactive); in the assay on MDA-MB-231 it was 29.9 µM (inactive). The GI50 in the assay on OVCAR-4 is 24.7 µM (inactive); in the assay on HCT-116, 20 µM (inactive); in the assay on KM12, 23 µM (inactive); in the assay on NCI-H23 it was 24.3 µM (inactive); with TK-10, 73.8 µM (inactive).
As to `O=C(NNC(=O)c1ccccc1O)c1cccs1`, the GI50 is 50.1 µM (inactive) in the assay on UO-31; 32.1 µM (inactive) in the assay with OVCAR-8; > 100 µM (inactive) in the assay with DU-145; > 100 µM (inactive) in the assay on U-251; > 100 µM (inactive) with SF-539; 5.79 µM (inactive) in the assay with NCI-H226. Moreover, the GI50 in the assay on SK-MEL-2 was > 100 µM (inactive); with OVCAR-3 it was 23.7 µM (inactive); with NCI/ADR-RES it was 27.8 µM (inactive); in the assay on NCI-H460 it was 56.9 µM (inactive); in the assay on SNB-75 it was 28.3 µM (inactive); with CAKI-1, 79.4 µM (inactive). In addition, the GI50 with SK-MEL-28 was > 100 µM (inactive); in the assay on MDA-MB-231, 78.2 µM (inactive); with OVCAR-4, > 100 µM (inactive); in the assay with HCT-116 it was 42.1 µM (inactive); with KM12, 39.4 µM (inactive); in the assay with TK-10 it was > 100 µM (inactive).
Take `CC(=O)N/N=C1\NC(=O)C[C@H]2[C@@H]3CC=C4C[C@@H](OC(C)=O)CC[C@]4(C)[C@H]3CC[C@]12C`: the GI50 in the assay on UO-31 was 40.6 µM (inactive); with OVCAR-8, 25.1 µM (inactive); in the assay with DU-145, 74 µM (inactive); with U-251, 12.8 µM (inactive); in the assay on SF-539, 7.33 µM (inactive); in the assay with NCI-H226, 23.8 µM (inactive). The GI50 in the assay on SK-MEL-2 was 47.5 µM (inactive); with OVCAR-3, > 100 µM (inactive); in the assay on NCI/ADR-RES it was 39.4 µM (inactive); in the assay with SNB-75 it was 20.9 µM (inactive); in the assay on CAKI-1, > 100 µM (inactive); with SK-MEL-28 it was 13.4 µM (inactive). Besides, the GI50 with MDA-MB-231 was 18.7 µM (inactive); with OVCAR-4, 11.2 µM (inactive); with HCT-116, 67 µM (inactive); with KM12 it was 38.9 µM (inactive); in the assay with NCI-H23, 49.9 µM (inactive); in the assay with TK-10, 17.1 µM (inactive).
As for `Cc1nnc2n1N=C(c1ccccc1)/C(=C/c1ccc(-c3ccc(Cl)cc3)o1)S2`, the GI50 with UO-31 was 12.8 µM (inactive); with DU-145, 14.3 µM (inactive); in the assay on U-251, 12.1 µM (inactive); with NCI-H226, 14.3 µM (inactive); in the assay on SK-MEL-2, 13.2 µM (inactive); in the assay on HCC 2998 it was 7.19 µM (inactive). Further, the GI50 was 10.5 µM (inactive) in the assay with OVCAR-3; 15.1 µM (inactive) in the assay on NCI-H460; 15.1 µM (inactive) in the assay with CAKI-1; 15.1 µM (inactive) in the assay with MDA-MB-231; 15.7 µM (inactive) in the assay with OVCAR-4; 12.2 µM (inactive) with HCT-116. Also, the GI50 in the assay on KM12 is 13.4 µM (inactive); in the assay with NCI-H23, 15.9 µM (inactive); in the assay with TK-10, 13.4 µM (inactive).
Take `O=C(O)C(Cc1c[nH]cn1)N1C(=O)c2ccccc2C1=O` (centres undefined): the GI50 is > 100 µM (inactive) with UO-31; > 100 µM (inactive) with OVCAR-8; > 100 µM (inactive) in the assay on DU-145; > 100 µM (inactive) in the assay with U-251; > 100 µM (inactive) with NCI-H226; 6.19 µM (inactive) in the assay with SK-MEL-2. Also, the GI50 with OVCAR-3 was 50.5 µM (inactive); in the assay with NCI/ADR-RES, > 100 µM (inactive); in the assay with NCI-H460 it was > 100 µM (inactive); in the assay with SNB-75 it was > 100 µM (inactive); in the assay with CAKI-1 it was > 100 µM (inactive); with SK-MEL-28, > 100 µM (inactive). For the same compound, the GI50 in the assay with MDA-MB-231 is 38 µM (inactive); with OVCAR-4, > 100 µM (inactive); with HCT-116, > 100 µM (inactive); in the assay on KM12, > 100 µM (inactive); with NCI-H23, > 100 µM (inactive); in the assay with TK-10 it was > 100 µM (inactive).
With `Cc1ccc(-[n+]2cc([O-])on2)cc1`, the GI50 is > 100 µM (inactive) in the assay with UO-31; > 100 µM (inactive) in the assay with OVCAR-8; > 100 µM (inactive) with DU-145; > 100 µM (inactive) in the assay with U-251; 10.1 µM (inactive) in the assay on NCI-H226; > 100 µM (inactive) with SK-MEL-2. Further, the GI50 in the assay with OVCAR-3, with NCI/ADR-RES, with NCI-H460, in the assay on CAKI-1, in the assay on SK-MEL-28 and with MDA-MB-231 was > 100 µM (inactive) each time. Also, the GI50 in the assay on OVCAR-4, with HCT-116, in the assay with KM12, with NCI-H23 and in the assay with TK-10 was > 100 µM (inactive) in each case.
Regarding `C/C(=N\c1c2ccccc2nc2ccccc12)N(C)C`, the GI50 in the assay with UO-31 is 9.64 µM (inactive); in the assay on OVCAR-8, 13.3 µM (inactive); in the assay on DU-145, 29 µM (inactive); in the assay on U-251, 23 µM (inactive); with NCI-H226, 11.9 µM (inactive); in the assay on SK-MEL-2 it was 20 µM (inactive). Further, the GI50 in the assay with OVCAR-3 was 14.4 µM (inactive); in the assay with NCI/ADR-RES, 16.3 µM (inactive); with SNB-75 it was 24.1 µM (inactive); in the assay on CAKI-1, 24.3 µM (inactive); in the assay on SK-MEL-28 it was 18.4 µM (inactive); in the assay on MDA-MB-231 it was 14.6 µM (inactive). The GI50 in the assay on OVCAR-4 is 19 µM (inactive); with HCT-116, 10.4 µM (inactive); with NCI-H23, 15.2 µM (inactive); with TK-10 it was 21.9 µM (inactive).
`N#Cc1cc(-c2nc3ccc(F)cc3s2)ccc1N`: the GI50 in the assay with UO-31 was > 100 µM (inactive); with OVCAR-8 it was > 100 µM (inactive); in the assay with DU-145, > 100 µM (inactive); in the assay with U-251, 63 µM (inactive); in the assay on SF-539, 51.1 µM (inactive); in the assay on NCI-H226 it was > 100 µM (inactive). Also, the GI50 in the assay on OVCAR-3 was > 100 µM (inactive); with NCI/ADR-RES, > 100 µM (inactive); in the assay on NCI-H460, > 100 µM (inactive); in the assay with SNB-75, 14.7 µM (inactive); in the assay on CAKI-1, > 100 µM (inactive); in the assay on MDA-MB-231, > 100 µM (inactive). Further, the GI50 with OVCAR-4 was > 100 µM (inactive); in the assay with HCT-116, 33.5 µM (inactive); in the assay with KM12 it was > 100 µM (inactive); in the assay on NCI-H23 it was > 100 µM (inactive); in the assay with TK-10, > 100 µM (inactive).
